Assay results reported in PMC7434981, “Development of a Novel Positron Emission Tomography (PET) Radiotracer Targeting Bromodomain and Extra-Terminal Domain (BET) Family Proteins” (Frontiers in Molecular Biosciences, 2020).

What was measured:
[1] = system: BET proteins; test: PET/CT blocking studies in mice (specific binding); format: in vivo; details: for radioactivity reduction in the whole-brain: based on TACs; for decrease of radioligand concentration in organs of interest: average over organs
Protocol: To evaluate the specific binding of [^11C]1, the blocking studies were carried out. Mice were pre-treated with unlabeled 1 (1.0 mg/kg) and JQ1 (1.0 mg/kg) at 5-min prior to the administration of [^11C]1. The PET/CT imaging and time-activity curves (TAC) of baseline and blocking studies are shown separately in Figure 3.
(§1) The general procedure for rodent PET/CT studies was described previously ([Bai et al., 2019], [2020a]). Briefly, the PET/CT scan was carried out by a Triumph Trimodality/SPECT scanner (Gamma Medica, Northridge, CA, United States). Mice were arranged under anesthetized 2% isoflurane (Patterson Vet Supply, Inc., Greeley, CO, United States) in a carrier of 2 L/min medical oxygen during the imaging scanning. [^11C]1 (3.7–7.4 Mbq per animal, n = 2) was injected in mice via a lateral tail vein catheterization before PET acquisition. For the blocking study, the radioligand was administrated after CF53, or JQ1 was injected via a lateral tail vein catheterization 5-min before the start of PET acquisition. Dynamic PET acquisition lasted for 60 min followed by 10-min CT for anatomic co-registration. PET data were reconstructed using a 3D-MLEM method resulting in full width at a half-maximum resolution of 1 mm. These files were imported and analyzed using AMIDE ([Loening and Gambhir, 2003]) (a medical imaging data examiner) software (an open-source software, Los Angeles, CA, United States) and PMOD (PMOD 4.01, PMOD Technologies Ltd., Zurich, Switzerland).
(§2) Dynamic PET data were collected and the corresponding images were reconstructed by 3D-MLEM method resulting in full width at a half-maximum resolution of 1 mm. Volumes of interest (VOIs) were generated manually in forms of spheres under the guide of high-resolution CT structural images. TACs were exported as decay-corrected activity per unit volume. The TACs were expressed as percent injected dose per unit volume (%ID/cc) for analysis.

[2] = Dynamic PET/CT imaging in mice, baseline uptake and biodistribution; format: in vivo, male Balb/c mice
Protocol: Following the successful radiosynthesis, we stepped forward to evaluate [^11C]1 as a potential BET PET radiotracer by PET imaging experiments in rodents. Dynamic PET imaging in male Balb/c mice was conducted following the injection of [^11C]1 via the tail vein at the dose of 3.7–7.4 Mbq for each scan. Each dynamic PET imaging scan lasted for 60 min and followed by a 10-min of computed tomography (CT) scan. The PET/CT imaging analysis was then performed by dynamic data collection and image reconstruction. The biodistribution of [^11C]1 in the whole-body of mice is initially studied. As depicted in Figure 2, four time-points (5, 10, 30, and 60 min) after [^11C]1 injection were selected to evaluate the uptake, biodistribution, and clearance of the radioligand in the organs of interests. […] In the heart, spleen, and lung, the uptakes of radioligand reached a peak sharply and followed by gradual wash-out post-injection.
as §1, §2

[3] = system: non-BET bromodomain-containing proteins; parameters: method as in Zhao et al., 2018; details: ref Zhao et al., 2018; cited from earlier work
[4] = target: BET BD1; parameters: method as in Zhao et al., 2018; details: ref Zhao et al., 2018, cited from earlier work

Compound: Cc1nc(Nc2cc(C3CC3)nn2C)c2c(n1)[nH]c1cc(-c3c(C)noc3C)c(O[11CH3])cc12 [[^11C]1]
- radioactivity reduction in the whole-brain ([1]; JQ1-blocking (1.0 mg/kg JQ1)): ~50%
- decrease of radioligand concentration in organs of interest ([1]; JQ1-blocking: pre-treated with JQ1 (1.0 mg/kg) 5 min prior): over 40%
- radioactivity reduction in the whole-brain ([1]; self-blocking (1.0 mg/kg CF53)): ~50%
- decrease of radioligand concentration in organs of interest ([1]; self-blocking: pre-treated with unlabeled 1 (1.0 mg/kg) 5 min prior): over 40%
- distribution in blood-rich organs ([2]; heart, liver and kidney, i.v. tail vein, 5-60 min post-injection): highly distributed
- time of max brain uptake ([2]; post-injection, whole brain): ~2 min
- brain-blood barrier (BBB) penetration ([2]; whole brain PET): limited
- max brain uptake ([2]; whole-brain analysis, i.v.): 0.9 % ID/cc

Compound: COc1cc2c(cc1-c1c(C)noc1C)[nH]c1nc(C)nc(Nc3cc(C4CC4)nn3C)c12 [Compound 1]
- selectivity over non-BET bromodomain-containing proteins [3]: high selectivity
- Ki ([4]; binding affinity to BET BD1): < 1 nM
- Kd ([4]; to BET BD1, printed in Figure 1): 0.49 to 2.2 nM
